Tests used:
[1] = LC-ESI MS/MS quantification of drug concentration in intestinal tissue homogenates after oral cassette administration; assay type: in vivo, rat
Protocol: Male rats (Han-Wistar, ~ 100 days old, body-weight ~ 300 g) were used in this study. […] All experiments were performed in accordance with relevant guidelines and regulations, the animal work was approved by the Local Animal Research Ethics Board of Gothenburg, Sweden. […] Four animals were dosed in this study, and non-dosed tissue was prepared from control rats in parallel. […] Therefore, in the present study we focussed on the concept of “vertical” absorption gradients along the crypt-villous axis, which has not been studied earlier. The intestine was removed under anaesthesia using isoflurane (Forene, Abbott, USA), to ensure full viability and oxygenation of the tissue until the moment of excision. Animals were sacrificed without regaining consciousness by aortal incision and an overdose of isoflurane. Immediately after excision, intestines were divided into 10 cm long segments and each segment was carefully washed with Krebs-Bicarbonate-Ringer buffer (KBR) from the stomach to the large intestine (additional information in Supplementary Data). The first 5–10 mm of each segment were cut, quickly weighed and collected in homogenization tubes for subsequent extraction and LCMS analysis of total drug concentration in the gut-wall. The next 8–9 cm of each segment were prepared for MALDI-MSI analysis. […] The CMC gels quickly on wet-ice/isopropanol and provides tissue support during the subsequent cryosectioning. All samples were stored at −20 °C until cryosectioning. […] The supernatants were transferred to fresh vials and centrifuged again under the same conditions. […] The samples were analysed by LC-MS/MS and quantified against a calibration standard curve. The LC-MS/MS analysis was performed using an electrospray ionization tandem quadrupole mass spectrometer (Quattro Premier, Waters, USA) in positive ionization mode. The mass spectrometer was integrated with an ultra-performance liquid chromatography (UPLC) system (Acquity, Waters) assisted with a column manager. Chromatography was performed on a column (Acquity UPLC HSS T3, 2.1 × 50 mm) at 40 °C. The flow rate was 1000 µL/min and the injection volume was 5 µL. The mobile phases consisted of A: water, 0.2% (v/v) formic acid and 2% (v/v) acetonitrile and B: acetonitrile, 0.2% (v/v) formic acid. […] Data was acquired using multiple reaction monitoring (MRM) and mass transitions determined by QuanOptimize (Waters). Instrument control and data processing was performed using MassLynx 4.1 software including QuanLynx (Waters).

[2] = set-up: method as in PMID 1673839, PMID 11259831, PMID 9523990; conditions: ref [1], [15] and [48]; cited from earlier work
[3] = MALDI-MSI of drug distribution in rat small intestine after oral cassette administration; assay type: in vivo; conditions: oral 10 µmol/kg
Protocol: Male rats (Han-Wistar, ~ 100 days old, body-weight ~ 300 g) were used in this study. […] All experiments were performed in accordance with relevant guidelines and regulations, the animal work was approved by the Local Animal Research Ethics Board of Gothenburg, Sweden. […] Four animals were dosed in this study, and non-dosed tissue was prepared from control rats in parallel. […] Therefore, in the present study we focussed on the concept of “vertical” absorption gradients along the crypt-villous axis, which has not been studied earlier. The intestine was removed under anaesthesia using isoflurane (Forene, Abbott, USA), to ensure full viability and oxygenation of the tissue until the moment of excision. Animals were sacrificed without regaining consciousness by aortal incision and an overdose of isoflurane. Immediately after excision, intestines were divided into 10 cm long segments and each segment was carefully washed with Krebs-Bicarbonate-Ringer buffer (KBR) from the stomach to the large intestine (additional information in Supplementary Data). The first 5–10 mm of each segment were cut, quickly weighed and collected in homogenization tubes for subsequent extraction and LCMS analysis of total drug concentration in the gut-wall. The next 8–9 cm of each segment were prepared for MALDI-MSI analysis. […] The CMC gels quickly on wet-ice/isopropanol and provides tissue support during the subsequent cryosectioning. All samples were stored at −20 °C until cryosectioning. The embedded samples were attached and positioned with OCT-compound (TissueTek) to the specimen holder of a microtome (Cryo-Star HM 560 M, Microm International, Germany) set to −20 °C. The samples were sectioned at 10 µm thickness. […] A control tissue section from the same intestinal region from non-dosed animal was placed on each slide to enable a direct comparison to be made. All slides were kept at −80 °C until MALDI-MSI analysis. Tissue sections were also stained using haematoxylin and eosin (H&E) following a standard histological protocol for fresh frozen tissues. […] Additional optimization was performed using a robotic matrix sprayer (TM-Sprayer, HTX Technologies, USA) in order to minimize delocalization and crystal size, while still maintaining adequate extraction of compound from the tissue. […] An optical image (9600 dpi) of the glass slide was acquired using a flatbed scanner (Epson perfection V500). The tissue sections were coated with DHB (35 mg/ml, 70% ACN, 0.2% TFA) using a robotic sprayer with a flow of rate 70 µl/min, stage speed of 1100 mm/min, track spacing of 2 mm (crisscross pattern), nitrogen pressure 6 psi, and spray nozzle temperature set to 95 °C for 8 passes. […] FlexImaging 4.0 (Bruker Daltonics) and msIQuant 2.0 was used for data analysis, normalization (to total ion count) and ion image extraction.

[4] = no reference given; cited from earlier work
[5] = test system: Caco-2; set-up: method as in PMID 1673839, PMID 11259831, PMID 9523990; conditions: ref [1], [15] and [48]; cited from earlier work
[6] = oral 10 µmol/kg, 20 min post administration
[7] = 20 min, 30 cm along the intestine, line graph along crypt-villus axis

lower tissue concentration at 45 min compared to 20 min (LC-MS/MS) ([1]; male, Han-Wistar, rat, in vivo, po) | distance over which the gradient from villus tip towards crypt region runs [3, 7] [µm] | lower tissue concentration at 45 min compared to 20 min (LC-MS/MS) ([1]; oral 10 µmol/kg, 40 cm sample) | lower level at 45 min compared to 20 min (MSI) ([3]; 40 cm sample) | distance from the villus tips of significant reduction in abundance [3, 7] | SMILES | distance from the pyloro-duodenal junction of highest concentration (LC-ESI MS/MS homogenates) ([1]; oral 1 µmol/kg, 20 min post administration) [cm] | intestinal sample with highest concentration [1, 6] [cm] | Ion Class [2] | intensity profile from villus tip to base (line graph) ([3]; 20 min, 30 cm along the intestine) | localisation across and within the villi (transverse profile) ([3]; 20 min, profile perpendicular to the villus axis) | Tmax in the rat [4] [min] | Caco-2 Papp [5]
 |  |  |  |  | CC(C)NCC(O)COc1ccc(CC(N)=O)cc1 (stereo not drawn) [Atenolol] | 50 | 20 | Base | maintain similar intensities all the way from the villus tip to the basal regions | localized primarily between the villi |  | 
about 3 fold | 200 |  |  |  | COCCc1ccc(OCC(O)CNC(C)C)cc1 (stereo not drawn) [Metoprolol] |  |  |  |  |  | < 20 | 27.0 1E-6.cm/s
 |  | about 3 fold | about 3 fold | 400–500 µm | CC(C)NCC(O)COc1cccc2ccccc12 (stereo not drawn) [Propranolol] |  | 30 | Base |  |  |  | 41.9 1E-6.cm/s

— PMC5526999, “Mass Spectrometry Imaging proves differential absorption profiles of well-characterised permeability markers along the crypt-villus axis” (Scientific Reports, 2017)
